Results reported in patent US11717554B2, “Method for preventing or treating hangover symptom(s) associated with consumption of alcoholic beverage(s)” (MAX R&D LLC, priority 2019, dated 2023).
Where two headings read alike, the source gives them in different places. Values belong to the molecule of their own block, whether it stands above or below them.

Experiments:
[1] = tested on: acetaldehyde; assay: MTCG in urine of rats treated with ethanol, disulfiram and CG or CbG; settings: for oral bioavailability (in words): inferred from urinary MTCG excretion
Experimental: In the first study, rats were administered disulfiram, an ALDH inhibitor and alcohol deterrent drug used to inhibit the metabolism of ethanol at the acetaldehyde stage, thus producing an adverse reaction that discourages further alcohol drinking (reviewed in Wikipedia, 2017). Treatment of rats with disulfiram causes a buildup of acetaldehyde in blood (Nagasawa et al, 1978). The rats were then administered CbG, orally, to determine whether CbG, following its in vivo conversion to CG, can sequester the acetaldehyde produced in the disulfiram-treated rats to a product that is excreted into the urine. Note that CbG in vivo may be reduced 2 CG. The product expected from this sequestration reaction is MTCG (vide supra). The MTCG in rat urine, collected over 24 hours following the ethanol dose, was quantitatively analyzed by LC/MS.

[2] = tested on: isoamyl aldehyde; settings: for BTCG excreted in urine: LC/MS
From the text: In the second study, isoamyl alcohol replaced ethanol, and cyanamide, another clinically-used ALDH inhibitor (Tottmar et al., 1977), replaced disulfiram to block the further metabolism of isoamyl aldehyde derived from isoamyl alcohol (FIG. 3). Isoamyl alcohol is the most abundant small, branched-chain alcohol congener present in bourbon (Damrau and Liddy, 1960). […] The excreted product in urine here would be 2-isoobutylthiazolidine-4-carbonylglycine, viz., BTCG (FIG. 1). The urines were analyzed for BTCG by LC/MS as above.

[3] = Urinary excretion and metabolic fate of MTCA in rats; type: in vivo
From the text: We examined cysteine (the natural “L’ form), a semi-essential sulfhydryl amino acid, as a sequestering agent for acetaldehyde (Nagasawa et al., 1975). Indeed, cysteine readily condensed with acetaldehyde in aqueous solution to form a cyclic product, 2-methylthiazolidine-4 carboxylic acid (MTCA). […] We, therefore, prepared and administered radio-labeled MTCA (^14C at the 2-position) to a rat to follow its metabolic course (Nagasawa et al., 1984).

[4] = Stability of MTCG in 0.1 N HCl; type: physicochemical
From the text: Although identified in urine, the long-term stability of MTCG in urine is still a question. MTCG is found to be stable in 0.1 N HCl, so we plan to collect the rat urine in acidified containers on ice. Presence of MTCG will be determined using a HPLC/MS method to obtain quantitative data of MTCG in rat urine.

[5] = rat biological fluids; cited from earlier work

SMILES: N[C@@H](CS)C(=O)NCC(=O)O [CG, cysteinylglycine]
urinary MTCG excretion, CG group (Group A) compared with disulfiram and ethanol only (Group C) ([1]; rats, disulfiram and ethanol, 24 hour urine): not statistically significant | oral bioavailability (in words) ([1]; rats): poor oral bioavailability

SMILES: NC(CSSCC(N)C(=O)NCC(=O)O)C(=O)NCC(=O)O (centres unmarked) [CbG, cystinyl-bis-glycine]
urinary excretion of MTCG relative to CG administration ([1]; rats given disulfiram and ethanol, oral CbG (Group B) vs CG (Group A), urine collected over 24 hours, LC/MS): 4.25 times greater | oral bioavailability (in words) ([1]; rats): more orally bioavailable than CG | BTCG excreted in urine ([2]; Group A: cyanamide, isoamyl alcohol and CbG): excreted BTCG in the urine, albeit minimally | condition of animals ([2]; Group A: rats receiving cyanamide, isoamyl alcohol and CbG, group without CbG was comatose (3 of 7) with one death): normal although hypoactive | BTCG excreted in urine ([2]; Group C: isoamyl alcohol and CbG, no cyanamide): no BTCG could be detected in urine | condition of animals ([2]; Group C: rats receiving isoamyl alcohol and CbG, no cyanamide): normal but more active | urinary excretion of BTCG compared to MTCG of the first study ([2]; cyanamide, CbG, isoamyl alcohol vs disulfiram, CbG, ethanol (nanograms of BTCG vs. micrograms of MTCG)): more than 3 orders of magnitude lower

SMILES: N[C@@H](CS)C(=O)O [L-cysteine]
MTCA in urine after ethanol and L-cysteine ([3]; rats administered ethanol and L-cysteine): could not find MTCA in the urine

SMILES: CC1NC(C(=O)O)CS1 (centres unmarked) [MTCA, 2-methylthiazolidine-4 carboxylic acid]
metabolic fate of radiolabel ([3]; rat, in vivo): most of the radiolabel appeared as expired ^14CO2 | MTCA in urine after administration of MTCA ([3]; rats, MTCA 400 mg/kg): no MTCA in the urine

stability in 0.1 N HCl [4]: stable
SMILES: CC1NC(C(=O)NCC(=O)O)CS1 (centres unmarked) [MTCG, 2-methylthiazolidine-4-carbonylglycine]
stability in biological fluids of rats, including urine [5]: stable
